Results: patent US6384061B1, “Hydantoin compounds and methods related thereto” (LG Chemical Ltd., priority 2000, dated 2002)
pIC50: −log10 of the molar value.

Tests used:
[1] = test system: intracellular Ras farnesyl transferase, Rat2 cell line; assay: Intracellular Ras farnesyl transferase inhibiting activity in transformed Rat2 cells (35S-methionine labelling, Y13-259 immunoprecipitation, SDS-PAGE); assay type: cell-based; settings: Rattus norvegicus; transformed Rat2 fibroblast cell line; concentration inhibiting 50% of farnesyl binding of Ras protein; read-out: Ftase CIC50
Outline: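 Rat2 fibroblasts transformed with H-Ras, or with H-Ras carrying the K-Ras polybasic lysine C-terminus, were treated with compound (1% DMSO). After 4 h they were labelled for 20 h with 150 μCi/ml 35S-methionine. Lysates were immunoprecipitated with Y13-259, run on 13.5% SDS-PAGE and autoradiographed; CIC50 is the concentration halving farnesylated versus unfarnesylated Ras band intensity.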

[2] = target: T1, Geranylgeranyl transferase (Bos taurus, UniProt P29702+Q5EAD5); assay: Geranylgeranyl transferase inhibiting activity (geranylgeranyl pyrophosphate, Ras-CVIL substrate); assay type: biochemical; settings: geranylgeranyl transferase purified from bovine brain, read-out: GGtase IC50
T1 construct: Geranylgeranyl transferase was purified from bovine brain; from tissue; host or cells: bovine brain
Outline: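 Bovine-brain-purified enzyme run as in the farnesyl transferase assay, with geranylgeranyl pyrophosphate and Ras-CVIL substrate protein under similar reaction conditions.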

Ras farnesyl transferase = target: T2, Ras farnesyl transferase (Homo sapiens, UniProt P49354+P49356); assay: Ras farnesyl transferase inhibiting activity (filter-binding, tritium-farnesylpyrophosphate, Ras-CVLS substrate); assay type: biochemical; settings: recombinant Ras farnesyl transferase, 30 minutes at 37° C., read-out: Ftase IC50
T2 construct: made in house

| SMILES | pIC50 [1] | pIC50 [2] | pIC50 (Ras farnesyl transferase) |
| --- | --- | --- | --- |
| COCCN(C)C(=O)c1ccc(CN2C(=O)N(CCCn3ccnc3)C(=O)C2(C)c2cccc3ccccc23)cc1 (stereo not drawn) [Compound 42, 4[3-(3-imidazol-1-yl-propyl)-5-methyl-5-naphthalen-1-yl-2,4-dioxo-imidazolidin-1-ylmethyl]-N-(2-methoxy-ethyl)-N-methyl-benzamide] | > 4.70 | < 5.00 | 6.00 |
| CC1(c2cccc3ccccc23)C(=O)N(CCCn2ccnc2)C(=O)N1Cc1cccc(Oc2ccccc2)c1 (stereo not drawn) [Compound 25, 3-(3-imidazol-1-yl-propyl)-5-methyl-5-naphthalen-1-yl-1-(3-phenoxy-benzyl)-imidazolidin-2,4-dione] | > 4.70 | < 5.00 | 6.14 |
| CC1(c2cccc3ccccc23)C(=O)N(CCCn2ccnc2)C(=O)N1C(=O)N1CCOCC1 (stereo not drawn) [Compound 65, 3-(3-imidazol-1-yl-propyl)-5methyl-1-(morpholine-4-carbonyl)-5-naphthalen-1-yl-imidazolidin-2,4-dione] | > 4.70 | < 5.00 | 5.35 |
| O=C(OCc1ccccc1)N1CCC(Cn2cncc2CN2C(=O)CN(Cc3cccc4ccccc34)C2=O)CC1 [Compound 76, 4-[5-(3-naphthalen-1-ylmethyl-2,5-dioxo-imidazolidin-1-ylmethyl)-imidazol-1-ylmethyl]-piperidine-1-carboxylic acid benzyl ester] | < 4.30 | < 5.00 | 5.30 |
| N#Cc1ccc(Cn2cncc2CN2C(=O)[C@H](CC(=O)N3CCOCC3)N(Cc3cccc4ccccc34)C2=O)cc1 [Compound 81, 4-{(5S)-[4-(2-morpholin-4-yl-2-oxo-ethyl)-3-naphthalen-1-ylmethyl-2,5-dioxo-imidazolidin-1-ylmethyl]-imidazol-1-ylmethyl}-benzonitrile] | > 4.70 | < 5.00 | 6.96 |
| COC(=O)C[C@H]1C(=O)N(Cc2cncn2Cc2ccc(C#N)cc2)C(=O)N1Cc1cccc2ccccc12 [Compound 79, {1-[3-(4-cyano-benzyl)-3H-imidazol-4-ylmethyl]-3-naphthalen-1-ylmethyl-2,5-dioxo-imidazolidin-(4S)-yl}-acetic acid methyl ester] | > 5.00 | < 5.00 | 7.40 |
| COC(=O)C(CCSC)NC(=O)CN1C(=O)N(Cc2cncn2Cc2ccc(C#N)cc2)C(=O)C1(C)c1cccc2ccccc12 (stereo not drawn) [Compound 7, 2-(2-{3-[3-(4-cyano-benzyl)-imidazol-4-yl-methyl]-5-methyl-5-naphthalen-1-yl-2,4-dioxo-imidazolidin-1-yl}-acetylamino)-4-methylsulfanyl-butyric acid methyl ester] | > 4.70 | < 5.00 | 6.74 |
| CC1(c2cccc3ccccc23)C(=O)N(CCCc2cnc[nH]2)C(=O)N1CC(=O)NC(CCS(C)(=O)=O)C(=O)O (stereo not drawn) [Compound 13, 2-(2-{3-[3-(3H-imidazol-4-yl)-propyl]-5-methyl-5-naphthalen-1-yl-2,4-dioxo-imidazolidin-1-yl}-acetylamino)-4-methylsulfonyl-butyric acid] | > 4.70 | < 5.00 | 8.82 |
| CC1(c2cccc3ccccc23)C(=O)N(CCCn2ccnc2)C(=O)N1Cc1cccc(OC(F)(F)F)c1 (stereo not drawn) [Compound 23, 1-(3-trifluoromethoxy-benzyl)-3-(3-imidazol-1-yl-propyl)-5-methyl-5-naphthalen-1-yl-imidazolidin-2,4-dione] | > 4.70 | < 5.00 | 5.52 |
| CC1(c2cccc3ccccc23)C(=O)N(CCCn2ccnc2)C(=O)N1Cc1cccc(Cl)c1 (stereo not drawn) [Compound 19, 1-(3-chloro-benzyl)-3-(3-imidazol-1-yl-propyl)-5-methyl-5-naphthalen-1-yl-imidazolidin-2,4-dione] | > 4.70 | < 5.00 | 6.62 |
| CSCCC(NC(=O)CN1C(=O)N(CCc2c[nH]cn2)C(=O)C1(C)c1cccc2ccccc12)C(=O)O (stereo not drawn) [Compound 4, 2-(2-{3-[2-(1H-imidazol-4-yl)-ethyl]-5-methyl-5-naphthalen-1-yl-2,4-dioxo-imidazolidin-1-yl}-acetylamino)-4-methylsulfanyl-butyric acid] | 5.00 | 6.15 | 8.32 |
| COC(=O)C(CCSC)NC(=O)CN1C(=O)N(Cc2cnc[nH]2)C(=O)C1(C)c1cccc2ccccc12 (stereo not drawn) [Compound 5, 2-{2-[3-(3H-imidazol-4-yl-methyl)-5-methyl-5-naphthaten-1-yl-2,4-dioxo-imidazolidin-1-yl]-acetylamino}-4-methylsulfanyl-butyric acid methyl ester] | 5.00 | < 5.00 | 3.72 |
| CC1(c2cccc3ccccc23)C(=O)N(CCCn2ccnc2)C(=O)N1Cc1cccc(C(=O)N2CCSCC2)c1 (stereo not drawn) [Compound 44, 3-(3-imidazol-1-yl-propyl)-1-[3-(thiomorpholine-4-carbonyl)-benzyl]-5-methyl-5-naphthalen-1-yl-imidazolidin-2,4-dione] | > 4.70 | < 5.00 | 5.10 |
| CSCCC(NC(=O)CN1C(=O)N(Cc2cnc[nH]2)C(=O)C1(C)c1cccc2ccccc12)C(=O)O (stereo not drawn) [Compound 6, 2-{2-[3-(3H-imidazol-4-yl-methyl)-5-methyl-5-naphthalen-1-yl-2,4-dioxo-imidazolidin-1-yl]-acetylamino}-4-methylsulfanyl-butyric acid] | 5.14 | < 5.00 | 7.21 |
| CCN1C(=O)N(Cc2cncn2Cc2ccc(C#N)cc2)C(=O)C1(C)c1cccc2ccccc12 (stereo not drawn) [Compound 61, 4-[5-(3-ethyl-4-methyl-4-naphthalen-1-yl-2,5-dioxo-imidazolidin-1-ylmethyl)-imidazol-1-ylmethyl]-benzonitrile] | > 4.70 | < 5.00 | 6.80 |
| COC(=O)C(CCSC)NC(=O)CN1C(=O)N(CCCc2cncn2Cc2ccc(C#N)cc2)C(=O)C1(C)c1cccc2ccccc12 (stereo not drawn) [Compound 57, 2-[2-(3-{3-[3-(4-cyanobenzyl)-3H-imidazol-4-yl]-propyl}-5-methyl-5-naphthalen-1-yl-2,4-dioxo-imidazolidin-1-yl)acetylamino]-4-methylsulfanyl-butyric acid methyl ester] | 3.40 | < 5.00 | 7.80 |
| CC1(c2cccc3ccccc23)C(=O)N(CCCn2ccnc2)C(=O)N1Cc1ccc(Br)cc1 (stereo not drawn) [Compound 21, 1-(4-bromo-benzyl)-3-(3-imidazol-1-yl-propyl)-5-methyl-5-naphthalen-1-yl-imidazolidin-2,4-dione] | > 4.70 | < 5.00 | 6.82 |
| CC1(c2cccc3ccccc23)C(=O)N(CCCc2cnc[nH]2)C(=O)N1CC(=O)N1CCS(=O)(=O)C1 (stereo not drawn) [Compound 11] | > 4.70 | < 5.00 | < 4.30 |
| O=C(OCc1ccccc1)N1CCC(Cn2cncc2CN2C(=O)CN(c3cccc4ccccc34)C2=O)CC1 [Compound 74, 4-[5-(3-naphthalen-1-yl-2,5-dioxo-imidazolidin-1-ylmethyl)-imidazol-1-ylmethyl]-piperidine-1-carboxylic acid benzyl ester] | > 4.30 | < 5.00 | 5.40 |
| CC1(c2cccc3ccccc23)C(=O)N(CCCn2ccnc2)C(=O)N1Cc1cccc(C#N)c1 (stereo not drawn) [Compound 32, 3-[3-(3-imidazol-1-yl-propyl)-5-methyl-5naphthalen-1-yl-2,4-dioxo-imidazolidin-1-ylmethyl]-benzonitrile] | > 4.70 | < 5.00 | 7.04 |
| CSCCC(NC(=O)CN1C(=O)N(CCCc2cncn2Cc2ccc(C#N)cc2)C(=O)C1(C)c1cccc2ccccc12)C(=O)O (stereo not drawn) [Compound 58, 2-[2-(3-{3-[3-(4-cyanobenzyl)-3H-imidazol-4-yl]-propyl}-5-methyl-5-naphthalen-1-yl-2,4-dioxo-imidazolidin-1-yl)-acetylamino]-4-methylsulfanyl-butyric acid] | > 4.70 | < 5.00 | 7.85 |
| COCCOCN1C(=O)N(CCCc2cncn2Cc2ccc(C#N)cc2)C(=O)C1(C)c1cccc2ccccc12 (stereo not drawn) [Compound 50, 4-(5-{3-[3-(2-methoxy-ethoxymethyl)-4-methyl-4-naphthalen-1-yl-2,5-dioxo-imidazolidin-1-yl]-propyl}-imidazol-1-ylmethyl)-benzonitrile] | > 4.70 | < 5.00 | 7.26 |
| CCCN1C(=O)N(CCCc2cncn2Cc2ccc(C#N)cc2)C(=O)C1(C)c1cccc2ccccc12 (stereo not drawn) [Compound 48, 4-{5-[3-(3-propyl-4-methyl-4-naphthalen-1-yl-2,5-dioxo-imidazolidin-1-yl)-propyl]-imidazol-1-ylmethyl}benzonitrile] | > 4.70 | < 5.00 | 7.40 |
| CC1(c2cccc3ccccc23)C(=O)N(CCCn2ccnc2)C(=O)N1Cc1cccc(CNS(C)(=O)=O)c1 (stereo not drawn) [Compound 36, N-{3-[3-(3-imidazol-1-yl-propyl)-5-methyl-5-naphthalen-1-yl-2,4-dioxo-imidazolidin-1-ylmethyl]-benzyl}-methanesulfonamide] | > 4.70 | < 5.00 | 5.92 |
| CSc1ccc(CN2C(=O)N(CCCn3ccnc3)C(=O)C2(C)c2cccc3ccccc23)cc1C#N (stereo not drawn) [Compound 29, 5-[3-(3-imidazol-1-yl-propyl)-5-methyl-5-naphthalen-1-yl-2,4-dioxo-imidazolidin-1-ylmethyl]-2-methylsulfanyl-benzonitrile] | > 4.70 | < 5.00 | 7.10 |
